Measurements from US10233198B2, “Pro-drugs of NSAIAs with very high skin and membranes penetration rates and their new medicinal uses” (Techfields Pharma Co., Ltd., priority 2007, dated 2019).
Each block holds one compound with its values, some of them ahead of it.

Tests used:
normal rats = assay: Blood glucose in normal rats, transdermal; assay type: in vivo; conditions: no fasting; for Blood glucose, normal rats, Baseline: baseline of the treatment group; for Blood glucose, normal rats, Average: transdermal, equal to 20 mg/kg of NSAIAs once per day for 5 weeks, second to fifth week
[1] = tested on: SLAC/GK rats, type 2 diabetes; assay: Blood lipid levels in type 2 diabetic rats, transdermal; assay type: in vivo; conditions: for Triglycerides, Baseline: baseline of the treatment group; for Triglycerides, Average / Cholesterol (total), Average: end of fifth week, transdermal, equal to 20 mg/kg of NSAIAs once per day
Source text: (§1) The pro-drugs in this invention lower blood glucose levels in rat models (SLAC/GK, type 2 diabetes, n=7). 50% acetone solution of diethylaminoethyl acetylsalicylate.acetylsaficylic acid salt (P-1, in acetone); 4-acetamidophenyl salicylyldimethylaminobutyrate.HCl (P-6), diethylaminoethyl 5-(2,4-difluorophenyl) acetylsalicylate.5-(2,4-difluorophenyl) acetylsalicylic acid salt (P-8), diethylaminoethyl salicylsalicylate.AcOH (P-9), diethylaminoethyl salicylate.AcOH (P-10), diethylaminoethyl 5-acetamido-acetylsalicylate (P-58), diethylaminoethyl acetylsalicylsalicylate. acetylsalicylsalicylic acid salt (P-59), diethylaminoethyl acetylsalicylsalicylate. acetylsalicylsalicylsalicylic acid salt (P-60) (equal to of 20 mg/kg of NSAIAs) were administered transdermally to the backs (about 1.5 cm^2) of rats (fur was shaved) once per day (at 8 am) for 5 weeks. The blood glucose levels were measured once every 3 days at 4 pm (no fasting) from the second week to the fifth week. The blood lipid levels were measured at the end of the fifth week.

[2] = tested on: SLAC/GK rats, type 2 diabetes; assay: Blood glucose in type 2 diabetic rats, transdermal; assay type: in vivo; conditions: no fasting; for Blood glucose, diabetic rats, Baseline: baseline of the treatment group; for Blood glucose, diabetic rats, Average: transdermal, equal to 20 mg/kg of NSAIAs once per day for 5 weeks, measured every 3 days, second to fifth week
Source text: as §1

[3] = tested on: SLAC/GK rats, type 2 diabetes; assay: Blood lipid levels in type 2 diabetic rats, oral with food; assay type: in vivo
Source text: The pH of stomach juice is 1-3. The negative charge on the phosphate head group of membrane is neutralized by the proton and the positive charge on the amino groups of these pro-drugs cannot bond to the phosphate head group of membranes, then the pro-drugs cannot pass through the wall of the stomach and will not hurt or upset the stomach. The pH of the duodenum is about 5-7 and the pro-drugs can pass through the mucosa of duodenum. The pancreas is nearby and large amount of the pro-drugs will enter there before going to the liver, kidneys, and the general circulation where the drug will be metabolized, so only very low dose of these pro-drugs are needed and very few and low side effects will be caused. The 20% acetone solution of diethylaminoethyl acetylsalicylate.acetylsalicylic acid salt (P-1, in acetone); 4-acetamidophenyl salicylyldimethylaminobutyrate.HCl (P-6), diethylaminoethyl 5-(2,4-difluorophenyl) acetylsalicylate.5-(2,4-difluorophenyl) acetylsalicylic acid salt (P-8), diethylaminoethyl salicylsalicylate.AcOH (P-9), diethylaminoethyl salicylate.AcOH (P-10), diethylaminoethyl 5-acetamido-acetylsalicylate (P-58), diethylaminoethyl acetylsalicylsalicylate. acetylsalicylsalicylic acid salt (P-59), diethylaminoethyl acetylsalicylsalicylate. acetylsalicylsalicylsalicylic acid salt (P-60) (equal to of 15 mg/kg of NSAIAs) were mixed with food and were orally administered to the rats (SLAC/GK, type 2 diabetes, n=7) with food every day for 5 weeks. The blood glucose levels were measured once every 3 days at 3 pm (no fasting) from the second week to the fifth week. The blood lipid levels were measured at the end of the fifth week.

[4] = tested on: SLAC:NOD-IDDM mice, type 1 diabetes; assay: Blood glucose in type 1 diabetic mice, transdermal; assay type: in vivo; conditions: no fasting; for Blood glucose, type I diabetic mice, Baseline: baseline of the treatment group; for Blood glucose, type I diabetic mice, Average: transdermal, equal to 20 mg/kg of NSAIAs once per day for 7 weeks, fourth to seventh week
Source text: The pro-drugs in this invention lower blood glucose levels in mouse models (SLAC:NOD-IDDM, type 1 diabetes, n=7). 20% acetone solution of diethylaminoethyl acetylsalicylate.acetylsalicylic acid salt (P-1, in acetone); 4-acetamidophenyl salicylyldimethylaminobutyrate.HCl (P-6), diethylaminoethyl 5-(2,4-difluorophenyl) acetylsalicylate.5-(2,4-difluorophenyl) acetylsalicylic acid salt (P-8), diethylaminoethyl salicylsalicylate.AcOH (P-9), diethylaminoethyl salicylate.AcOH (P-10), diethylaminoethyl 5-acetamido-acetylsalicylate (P-58), diethylaminoethyl acetylsalicylsalicylate. acetylsalicylsalicylic acid salt (P-59), diethylaminoethyl acetylsalicylsalicylate. acetylsalicylsalicylsalicylic acid salt (P-60) (equal to of 20 mg/kg of NSAIAs) were administered transdermally to the backs (about 1 cm^2) of mice (fur was shaved) once per day (at 8 am) for 7 weeks. The blood glucose levels were measured once every 3 days at 3 pm (no fasting) from the fourth week to the seventh week.

Chinese White rabbits = assay: Malassezia-induced psoriasis-like lesions; assay type: in vivo; conditions: 5% aqueous solution applied twice per day; 10 days after the application
Source text: COX-1 and COX-2 play a very important role in animal immune-responses. NSAIAs inhibite COX-1 and COX-2. The pro-drugs of NSAIAs in this invention may be very useful for treating psoriasis, discoid lupus erythematosus, systemic lupus erythematosus (SLE), and other autoimmune diseases. Heavy suspensions of Malassezia [Rosenberg, E. W., et al., Mycopathologia, 72, 147-154 (1980)] were applied to the shaved skin on the backs of the Chinese white rabbits (n=4×6) twice (at 7 am and 7 pm) per day for 2 weeks, lesions similar to psoriasis resulted.

[5] = in vivo
Procedure: The in vivo rates of penetration of pro-drugs and their parent drugs through the skin of intact rats were compared. The donor consisted of 20% pro-drugs or their parent drugs in 1 ml of ethanol applied to about 5 cm^2 area on the backs of rats (˜200 g). After 4 hours, the rats were killed, and 5 ml of methanol was added to 1 ml of blood, 1 g of liver, 1 g of kidney, or 1 g of brain (liver, kidney or brain was washed with pH 7.2 buffer for three times) and the mixtures were homogenized. The samples were then centrifuged for 5 min and analyzed using HPLC.
After 4 hours, the rats were killed, and 5 ml of methanol was added to 1 ml of blood, 1 g of liver, 1 g of kidney, or 1 g of brain (liver, kidney or brain was washed with pH 7.2 buffer for three times) and the mixtures were homogenized.

[6] = baseline of the treatment group
[7] = end of fifth week, oral with food, equal to 15 mg/kg of NSAIAs every day

Structure (SMILES): CC(=O)Nc1ccc(OC(=O)c2ccccc2OC(=O)CCCN(C)C)cc1.Cl [P-6, 4-acetamidophenyl salicylyldimethylaminobutyrate.HCl]
- Blood glucose, normal rats, Baseline (normal rats): 6.8 ± 1 mmol/L
- Blood glucose, normal rats, Average (normal rats): 6.5 ± 1 mmol/L
- Triglycerides, Baseline [1]: 6.3 ± 0.5 mmol/L
- Blood glucose, diabetic rats, Baseline [2]: 16.7 ± 4 mmol/L
- Blood glucose, diabetic rats, Average [2]: 8.5 ± 2 mmol/L
- Cholesterol (HDL), Baseline [3, 6]: 1.8 ± 0.1 mmol/L
- Triglycerides, Baseline [3, 6]: 5.9 ± 0.5 mmol/L
- Blood glucose, type I diabetic mice, Baseline [4]: 27.7 ± 4 mmol/L
- Blood glucose, type I diabetic mice, Average [4]: 9.5 ± 2 mmol/L

Structure (SMILES): CC(=O)O.CCc1cccc2c3c([nH]c12)C(CC)(CC(=O)OCCN(CC)CC)OCC3 (stereo not drawn) [P-15, diethylaminoethyl 1,8-diethyl-1,3,4,9-tetrahydropyrano-[3,4-b]indole-1-acetate.AcOH]
- Psoriasis-like lesions (Chinese White rabbits): the lesions were resolved

Structure (SMILES): CC(=O)O.CCN(CC)CCOC(=O)Cc1cc(C)c(C(=O)c2ccc(Cl)cc2)n1C [P-14, diethylaminoethyl 5-(4-Chlorobenzoyl)-1,4-dimethyl-1H-pyrrole-2-acetate.AcOH]
- Psoriasis-like lesions (Chinese White rabbits): the lesions were resolved

Structure (SMILES): CC(=O)O.CCN(CC)CCOC(=O)c1ccccc1OC(=O)c1ccccc1O [P-9, diethylaminoethyl salicylsalicylate.AcOH]
- Blood glucose, normal rats, Baseline (normal rats): 6.5 ± 1 mmol/L
- Blood glucose, normal rats, Average (normal rats): 6.7 ± 1 mmol/L
- Triglycerides, Baseline [1]: 5.7 ± 0.5 mmol/L
- Triglycerides, Average [1]: 2.6 ± 0.2 mmol/L
- Blood glucose, diabetic rats, Average [2]: 8.4 ± 1 mmol/L
- Cholesterol (total), Average [3, 7]: 5.3 ± 0.4 mmol/L
- Blood glucose, type I diabetic mice, Baseline [4]: 26.5 ± 4 mmol/L
- Blood glucose, type I diabetic mice, Average [4]: 9.4 ± 1 mmol/L

Structure (SMILES): CCN(CC)CCOC(=O)c1cc(NC(C)=O)ccc1OC(C)=O [P-58, diethylaminoethyl 5-acetamido-acetylsalicylate]
- Blood glucose, normal rats, Average (normal rats): 7.1 ± 1 mmol/L
- Cholesterol (total), Average [1]: 5.4 ± 0.4 mmol/L
- Blood glucose, diabetic rats, Baseline [2]: 17.1 ± 3 mmol/L
- Triglycerides, Baseline [3, 6]: 5.9 ± 0.5 mmol/L
- Cholesterol (total), Average [3, 7]: 4.9 ± 0.4 mmol/L
- Triglycerides, Average [3, 7]: 2.8 ± 0.2 mmol/L
- Blood glucose, type I diabetic mice, Baseline [4]: 27.1 ± 3 mmol/L
- Blood glucose, type I diabetic mice, Average [4]: 7.9 ± 1 mmol/L

Structure (SMILES): CC(=O)O.CCN(CC)CCOC(=O)Cc1cn(-c2ccccc2)nc1-c1ccc(Cl)cc1 [P-22, diethylaminoethyl 3-(4-chlorophenyl)-1-phenyl-1H-pyrazole-4-acetate.AcOH]
- Psoriasis-like lesions (Chinese White rabbits): the lesions were resolved

- Brain level of prodrug or metabolites ([5]; rat, 4 h): 30 ± 6 µg/g
- Kidney level of prodrug or metabolites ([5]; rat, 4 h): 45 ± 6 µg/g
- Liver level of prodrug or metabolites ([5]; rat, 4 h): 30 ± 8 µg/g
- Plasma level of prodrug or metabolites ([5]; rat, 4 h): 80 ± 10 µg/mL
Structure (SMILES): O=C(O)c1ccccc1O [Salicylic acid]

Structure (SMILES): C=CCOc1ccc(CC(=O)OCCN(CC)CC)cc1Cl.CC(=O)O [P-18, diethylaminoethyl 3-chloro-4-(2-propenyloxy)benzeneacetate.AcOH]
- Psoriasis-like lesions (Chinese White rabbits): the lesions were resolved

- Drug found in rat tissues or plasma after topical application of the parent drug itself [5]: None of these drugs was found
Structure (SMILES): CC(=O)Oc1ccccc1C(=O)O [Aspirin]

Structure (SMILES): CC(=O)O.CC(C)Cc1ccc(C(C)C(=O)OCC2CCCNC2)cc1 (stereo not drawn) [P-5, 3-piperidinemethyl 2-(ρ-isobutylphenyl) propionate.AcOH]
- Psoriasis-like lesions (Chinese White rabbits): the lesions were resolved

Structure (SMILES): CC(=O)O.CCN(CC)CCOC(=O)c1ccccc1O [P-10, diethylaminoethyl salicylate.AcOH]
- Blood glucose, normal rats, Baseline (normal rats): 6.8 ± 1 mmol/L
- Triglycerides, Baseline [1]: 6.6 ± 0.6 mmol/L
- Triglycerides, Average [1]: 2.9 ± 0.2 mmol/L
- Blood glucose, diabetic rats, Baseline [2]: 15.8 ± 3 mmol/L
- Blood glucose, diabetic rats, Average [2]: 8.2 ± 1 mmol/L
- Blood glucose, type I diabetic mice, Baseline [4]: 25.8 ± 3 mmol/L
- Blood glucose, type I diabetic mice, Average [4]: 8.2 ± 1 mmol/L

Structure (SMILES): CC(=O)O.CCN(CC)CCOC(=O)Cc1sc(-c2ccccc2)nc1-c1ccc(Cl)cc1 [P-21, diethylaminoethyl 4-(4-chlorophenyl)-2-phenyl-5-thiazoleacetate.AcOH]
- Psoriasis-like lesions (Chinese White rabbits): the lesions were resolved

- Drug found in rat tissues or plasma after topical application of the parent drug itself [5]: None of these drugs was found
- Brain level of prodrug or metabolite ([5]; rat, 4 h): 35 ± 5 µg/g
- Kidney level of prodrug or metabolite ([5]; rat, 4 h): 45 ± 6 µg/g
- Liver level of prodrug or metabolite ([5]; rat, 4 h): 35 ± 8 µg/g
- Plasma level of prodrug or metabolite ([5]; rat, 4 h): 70 ± 8 µg/mL
Structure (SMILES): CC(C)Cc1ccc(C(C)C(=O)O)cc1 (stereo not drawn) [ibuprofen]

- Drug found in rat tissues or plasma after topical application of the parent drug itself [5]: None of these drugs was found
- Brain level of prodrug or metabolite ([5]; rat, 4 h): 40 ± 5 µg/g
- Kidney level of prodrug or metabolite ([5]; rat, 4 h): 48 ± 6 µg/g
- Liver level of prodrug or metabolite ([5]; rat, 4 h): 25 ± 8 µg/g
- Plasma level of prodrug or metabolite ([5]; rat, 4 h): 75 ± 8 µg/mL
Structure (SMILES): O=C(O)Cc1ccccc1Nc1c(Cl)cccc1Cl [diclofenac]

- Drug found in rat tissues or plasma after topical application of the parent drug itself [5]: None of these drugs was found
- Brain level of prodrug or metabolite ([5]; rat, 4 h): 45 ± 5 µg/g
- Kidney level of prodrug or metabolite ([5]; rat, 4 h): 48 ± 6 µg/g
- Liver level of prodrug or metabolite ([5]; rat, 4 h): 38 ± 8 µg/g
- Plasma level of prodrug or metabolite ([5]; rat, 4 h): 80 ± 8 µg/mL
Structure (SMILES): CC(C(=O)O)c1cccc(Oc2ccccc2)c1 (stereo not drawn) [fenoprofen]

Structure (SMILES): CC(=O)O.CCN(CC)CCOC(=O)Cc1cccc(C(=O)c2ccc(Br)cc2)c1N [P-17, diethylaminoethyl 2-amino-3-(4-bromo-benzoyl)benzeneacetate.AcOH]
- Psoriasis-like lesions (Chinese White rabbits): the lesions were resolved

Structure (SMILES): CC(=O)Oc1ccc(-c2ccc(F)cc2F)cc1C(=O)O.CCN(CC)CCOC(=O)c1cc(-c2ccc(F)cc2F)ccc1OC(C)=O [P-8, diethylaminoethyl 5-(2,4-difluorophenyl) acetylsalicylate.5-(2,4-difluorophenyl) acetylsalicylic acid salt]
- Blood glucose, normal rats, Baseline (normal rats): 7.1 ± 1 mmol/L
- Triglycerides, Average [1]: 2.1 ± 0.2 mmol/L
- Blood glucose, diabetic rats, Baseline [2]: 17.1 ± 3 mmol/L
- Blood glucose, diabetic rats, Average [2]: 8.1 ± 1 mmol/L
- Cholesterol (total), Baseline [3, 6]: 7.4 ± 0.6 mmol/L
- Triglycerides, Baseline [3, 6]: 6.2 ± 0.7 mmol/L
- Cholesterol (total), Average [3, 7]: 5.1 ± 0.3 mmol/L
- Blood glucose, type I diabetic mice, Baseline [4]: 29.1 ± 5 mmol/L
- Blood glucose, type I diabetic mice, Average [4]: 9.1 ± 1 mmol/L

Structure (SMILES): CC(=O)Oc1ccccc1C(=O)Oc1ccccc1C(=O)Oc1ccccc1C(=O)O.CCN(CC)CCOC(=O)c1ccccc1OC(=O)c1ccccc1OC(C)=O [P-60, diethylaminoethyl acetylsalicylsalicylate. acetylsalicylsalicylsalicylic acid salt]
- Blood glucose, normal rats, Baseline (normal rats): 6.6 ± 1 mmol/L
- Blood glucose, normal rats, Average (normal rats): 7.5 ± 1 mmol/L
- Triglycerides, Baseline [1]: 5.7 ± 0.6 mmol/L
- Cholesterol (total), Average [1]: 5.2 ± 0.3 mmol/L
- Blood glucose, diabetic rats, Baseline [2]: 15.5 ± 3 mmol/L
- Blood glucose, diabetic rats, Average [2]: 8.6 ± 1 mmol/L
- Triglycerides, Baseline [3, 6]: 6.2 ± 0.5 mmol/L
- Cholesterol (total), Average [3, 7]: 5.0 ± 0.3 mmol/L
- Blood glucose, type I diabetic mice, Baseline [4]: 25.5 ± 3 mmol/L
- Blood glucose, type I diabetic mice, Average [4]: 8.6 ± 1 mmol/L
